How the values were obtained:
[1] = target: T1, human recombinant adrenergic α2A receptor (Homo sapiens, UniProt P08913); assay: Adrenergic alpha2A radioligand binding ([3H]MK-912); settings: compound at 1 μM; read-out: Adrenergic (1 μM) α2A, percent inhibition of specific binding
T1 construct: expressed in transfected cells; host or cells: insect Sf9 cells
T1 sequence (P08913 1-465): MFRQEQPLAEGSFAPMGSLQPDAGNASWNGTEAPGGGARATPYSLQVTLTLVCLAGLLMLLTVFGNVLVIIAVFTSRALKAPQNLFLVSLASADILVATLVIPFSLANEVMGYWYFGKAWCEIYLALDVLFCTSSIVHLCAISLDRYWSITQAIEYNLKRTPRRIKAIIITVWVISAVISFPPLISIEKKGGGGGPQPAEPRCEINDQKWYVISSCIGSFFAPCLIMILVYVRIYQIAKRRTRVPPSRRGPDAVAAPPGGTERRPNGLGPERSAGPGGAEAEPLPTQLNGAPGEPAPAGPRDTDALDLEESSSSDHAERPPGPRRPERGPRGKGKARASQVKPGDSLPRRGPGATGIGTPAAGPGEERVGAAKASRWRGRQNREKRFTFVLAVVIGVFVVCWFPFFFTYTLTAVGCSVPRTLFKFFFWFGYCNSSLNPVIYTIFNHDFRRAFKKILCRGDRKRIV
Procedure: To evaluate in radioligand binding assays the activity of compounds of the invention, human recombinant adrenergic α2A receptor expressed in insect Sf9 cells (Uhlen S et al. J Pharmacol Exp Ther. 271:1558, 1994) in a modified Tris-HCl buffer (50 mM Tris-HCl, pH 7.4, 12.5 mM MgCl2, 2 mM EDTA) was used. Compounds of invention were incubated with 1 nM [^3H]MK-912 for 60 min. at 25° C. MK912 is (2S-trans)-1,3,4,5′,6,6′,7,12b-octahydro-1′,3′-dimethyl-spiro[2 h-benzofuro [2,3-a]quinolizine-2,4′ (1′H)-pyrimidin]-2′ (3′H)-one hydrochloride Non-specific binding was estimated in the presence of 10 μM WB-4101 (2-(2,6-Dimethoxyphenoxyethyl)aminomethyl-1,4-benzodioxane hydrochloride). Receptor proteins were filtered and washed, the filters were then counted to determine [^3H]MK-912 specifically bound. Compounds were screened at 1 μM or lower, using 1% DMSO as vehicle. Biochemical assay results are presented as the percent inhibition of specific binding in Table 5.

[2] = target: T2, human recombinant dopamine D2L receptor (Homo sapiens, UniProt P14416); assay: Dopamine D2L radioligand binding ([3H]Spiperone); settings: compound at 1 μM; read-out: Dopamine (1 μM) D2L, percent inhibition of specific binding
T2 construct: expressed in transfected cells; host or cells: CHO cells
In short: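 Binding measured by filtration and counting, reported as % inhibition of specific [3H]spiperone binding (0.16 nM tracer; 10 μM haloperidol for nonspecific). Compounds tested at ≤1 μM in 1% DMSO for 120 min at 25° C against CHO-expressed human D2L in pH 7.4 Tris-HCl buffer.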

[3] = target: T3, human recombinant serotonin (5-Hydroxytryptamine) 5-HT2C receptor (Homo sapiens, UniProt P28335); assay: Serotonin 5-HT2C radioligand binding ([3H]Mesulergine); settings: compound at 1 μM; read-out: Serotonin (1 μM) 5-HT2C, percent inhibition of specific binding
T3 construct: expressed in transfected cells; host or cells: CHO-K1 cells
T3 sequence (P28335 33-458): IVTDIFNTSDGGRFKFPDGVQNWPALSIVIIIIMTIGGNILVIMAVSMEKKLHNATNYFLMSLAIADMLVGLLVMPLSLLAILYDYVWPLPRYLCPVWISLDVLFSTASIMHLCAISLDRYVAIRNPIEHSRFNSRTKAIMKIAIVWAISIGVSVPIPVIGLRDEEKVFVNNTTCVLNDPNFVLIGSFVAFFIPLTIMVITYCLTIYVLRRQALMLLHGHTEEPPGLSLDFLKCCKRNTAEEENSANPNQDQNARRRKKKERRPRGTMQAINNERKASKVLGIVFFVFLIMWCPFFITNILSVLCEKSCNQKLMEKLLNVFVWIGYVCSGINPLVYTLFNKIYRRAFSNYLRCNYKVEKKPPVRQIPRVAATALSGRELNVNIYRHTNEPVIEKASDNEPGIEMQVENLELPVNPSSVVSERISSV
In short: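 Membranes from CHO-K1 cells expressing human 5-HT2C, incubated with 1 nM [3H]mesulergine for 60 min at 25 °C in 50 mM Tris-HCl pH 7.4 with ascorbic acid and pargyline.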

[4] = target: T4, human recombinant serotonin (5-Hydroxytryptamine) 5-HT6 receptor (Homo sapiens, UniProt P50406); assay: Serotonin 5-HT6 radioligand binding ([3H]LSD); settings: compound at 1 μM; read-out: Serotonin (1 μM) 5-HT6, percent inhibition of specific binding
T4 construct: expressed in transfected cells; host or cells: human HeLa cells
In short: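 Human recombinant 5-HT6 receptor from HeLa cells incubated with 1.5 nM [3H]LSD for 120 min at 37° C in 50 mM Tris-HCl pH 7.4, 150 mM NaCl, 2 mM ascorbic acid, 0.001% BSA. Nonspecific binding defined with 5 μM serotonin; bound ligand counted after filtration.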

T2 sequence (P14416 whole entry): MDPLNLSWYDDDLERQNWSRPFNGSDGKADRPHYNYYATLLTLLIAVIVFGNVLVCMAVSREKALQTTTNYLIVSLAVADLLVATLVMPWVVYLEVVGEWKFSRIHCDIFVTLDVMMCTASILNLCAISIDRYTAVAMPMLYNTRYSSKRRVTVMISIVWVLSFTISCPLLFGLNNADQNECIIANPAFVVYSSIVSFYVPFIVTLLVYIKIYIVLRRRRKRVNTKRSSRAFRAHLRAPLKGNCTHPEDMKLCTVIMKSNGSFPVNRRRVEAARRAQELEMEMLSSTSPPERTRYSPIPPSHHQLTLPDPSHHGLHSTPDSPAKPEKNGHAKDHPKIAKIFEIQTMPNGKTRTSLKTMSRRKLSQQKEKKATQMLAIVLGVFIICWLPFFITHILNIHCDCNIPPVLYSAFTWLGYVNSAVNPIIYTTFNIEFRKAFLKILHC
T4 sequence (P50406 whole entry): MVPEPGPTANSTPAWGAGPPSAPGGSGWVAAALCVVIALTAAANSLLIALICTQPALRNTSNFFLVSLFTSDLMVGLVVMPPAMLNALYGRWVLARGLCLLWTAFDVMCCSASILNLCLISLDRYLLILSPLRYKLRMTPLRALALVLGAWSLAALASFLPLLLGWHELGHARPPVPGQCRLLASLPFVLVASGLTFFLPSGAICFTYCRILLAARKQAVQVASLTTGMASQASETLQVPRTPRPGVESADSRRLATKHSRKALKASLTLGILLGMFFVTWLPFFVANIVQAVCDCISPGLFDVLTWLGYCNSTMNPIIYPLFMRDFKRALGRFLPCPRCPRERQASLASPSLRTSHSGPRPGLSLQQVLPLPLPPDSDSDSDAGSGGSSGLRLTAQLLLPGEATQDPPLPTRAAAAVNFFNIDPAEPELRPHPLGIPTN

Compound	inhibition at 1 µM [1] [%]	inhibition at 1 µM [2] [%]	inhibition at 1 µM [3] [%]	inhibition at 1 µM [4] [%]
Cc1ccc2c(c1)c1c(n2CC(O)c2ccc(C)nc2)CCN(C)CC1 (stereo not shown) [Compound No. 23, 2-(2,3,4,5-tetrahydro-3,9-dimethylazepino[4,5-b]indol-6(1H)-yl)-1-(6-methylpyridin-3-yl)ethanol]	42	4	37	17
CN1CCc2c(n(CC(O)c3ccccc3)c3ccc(Cl)cc23)CC1 (stereo not shown) [Compound No. 24, 2-(9-chloro-2,3,4,5-tetrahydro-3-methylazepino[4,5-b]indol-6(1H)-yl)-1-phenylethanol]	100	41	95	99
Cc1ccc2c(c1)c1c(n2CC(O)c2ccccc2)CCN(C)CC1 (stereo not shown) [Compound No. 25, 2-(2,3,4,5-tetrahydro-3,9-dimethylazepino[4,5-b]indol-6(1H)-yl)-1-phenylethanol]	100	43	94	93
Cc1ccc(C(O)Cn2c3c(c4cc(Cl)ccc42)CCN(C)CC3)cc1 (stereo not shown) [Compound No. 26, 2-(9-chloro-2,3,4,5-tetrahydro-3-methylazepino[4,5-b]indol-6(1H)-yl)-1-p-tolylethanol]	99	65	93	87
Cc1ccc(C(O)Cn2c3c(c4cc(C)ccc42)CCN(C)CC3)cc1 (stereo not shown) [Compound No. 27, 2-(2,3,4,5-tetrahydro-3,9-dimethylazepino[4,5-b]indol-6(1H)-yl)-1-p-tolylethanol]	98	58	91	92
Cc1ccc2c(c1)c1c(n2CCc2ccc(Cl)cc2)CCN(C)CC1 [Compound No. 28, 6-(4-chlorophenethyl)-1,2,3,4,5,6-hexahydro-3,9-dimethylazepino[4,5-b]indole]	96	67	94	95
CN1CCc2c(n(CCc3ccccc3Cl)c3ccc(Cl)cc23)CC1 [Compound No. 29, 6-(2-chlorophenethyl)-9-chloro-1,2,3,4,5,6-hexahydro-3-methylazepino[4,5-b]indole]	101	67	101	103
CN1CCc2c(n(CCc3ccc(Cl)cc3)c3ccc(Cl)cc23)CC1 [Compound No. 30, 6-(4-chlorophenethyl)-9-chloro-1,2,3,4,5,6-hexahydro-3-methylazepino[4,5-b]indole]	99	53	98	86
CC(C)NC(=O)Cn1c2c(c3cc(Cl)ccc31)CCN(C)CC2 [Compound No. 31, 2-(9-chloro-2,3,4,5-tetrahydro-3-methylazepino[4,5-b]indol-6(1H)-yl)-N-isopropylacetamide]	31	4	56	2
Cc1ccc2c(c1)c1c(n2CC(=O)N2CCCCC2)CCN(C)CC1 [Compound No. 32, 2-(2,3,4,5-tetrahydro-3,9-dimethylazepino[4,5-b]indol-6(1H)-yl)-1-(piperidin-1-yl)ethanone]	39	-1	48	4
C/C(=C\n1c2c(c3cc(C)ccc31)CCN(C)CC2)c1ccc(Cl)cc1 [Compound No. 33, 6-((E)-2-(4-chlorophenyl)prop-1-enyl)-1,2,3,4,5,6-hexahydro-3,9-dimethylazepino[4,5-b]indole]	97	35	86	98
C/C(=C\n1c2c(c3cc(C)ccc31)CCN(C)CC2)c1ccc(F)cc1 [Compound No. 34, 6-((E)-2-(4-fluorophenyl)prop-1-enyl)-1,2,3,4,5,6-hexahydro-3,9-dimethylazepino[4,5-b]indole]	94	90	97	103
C=C(Cn1c2c(c3cc(Cl)ccc31)CCN(C)CC2)c1ccc(Cl)cc1 [Compound No. 35, 9-chloro-6-(2-(4-chlorophenyl)allyl)-3-methyl-1,2,3,4,5,6-hexahydroazepino[4,5-b]indole]	93	50	91	102
C/C(=C\n1c2c(c3cc(Cl)ccc31)CCN(C)CC2)c1ccc(Cl)cc1 [Compound No. 36, 9-chloro-6-((E)-2-(4-chlorophenyl)prop-1-enyl)-1,2,3,4,5,6-hexahydro-3-methylazepino[4,5-b]indole]	96	34	83	99
CN1CCc2c(n(CC(=O)Nc3ccc(F)cc3)c3ccc(Cl)cc23)CC1 [Compound No. 37, 2-(9-chloro-2,3,4,5-tetrahydro-3-methylazepino[4,5-b]indol-6(1H)-yl)-N-(4-fluorophenyl) acetamide]	68	9	85	12
Cc1ccc2c(c1)c1c(n2CC(=O)N2CCOCC2)CCN(C)CC1 [Compound No. 38, 2-(2,3,4,5-tetrahydro-3,9-dimethylazepino[4,5-b]indol-6(1H)-yl)-1-morpholinoethanone]	77	21	98	41
Cc1ccc2c(c1)c1c(n2/C=C/c2ccc(F)cc2)CCN(C)CC1 [Compound No. 39, 6-(4-fluorostyryl)-1,2,3,4,5,6-hexahydro-3,9-dimethylazepino[4,5-b]indole]	98	66	97	103
CN1CCc2c(n(CC(O)c3ccccc3F)c3ccc(Cl)cc23)CC1 (stereo not shown) [Compound No. 40, 2-(9-chloro-2,3,4,5-tetrahydro-3-methylazepino[4,5-b]indol-6(1H)-yl)-1-(2-fluorophenyl)ethanol]	96	46	97	101
Cc1ccc2c(c1)c1c(n2CC(O)c2ccccc2F)CCN(C)CC1 (stereo not shown) [Compound No. 41, 1-(2-fluorophenyl)-2-(2,3,4,5-tetrahydro-3,9-dimethylazepino[4,5-b]indol-6(1H)-yl)ethanol]	95	34	99	101

Source: patent US9481676B2, “Azepino[4,5-B]indoles and methods of use” (Medivation Technologies, Inc., priority 2008, dated 2016)
